The values below come from BindingDB's records for doi:10.2165/00003495-200262180-00006 (Adis International, 2002).

pKi: −log10 of the molar value.

The target of the experiment is Prostaglandin G/H synthase 1 (Homo sapiens, UniProt P23219).
Sequence of Prostaglandin G/H synthase 1 (P23219 whole entry): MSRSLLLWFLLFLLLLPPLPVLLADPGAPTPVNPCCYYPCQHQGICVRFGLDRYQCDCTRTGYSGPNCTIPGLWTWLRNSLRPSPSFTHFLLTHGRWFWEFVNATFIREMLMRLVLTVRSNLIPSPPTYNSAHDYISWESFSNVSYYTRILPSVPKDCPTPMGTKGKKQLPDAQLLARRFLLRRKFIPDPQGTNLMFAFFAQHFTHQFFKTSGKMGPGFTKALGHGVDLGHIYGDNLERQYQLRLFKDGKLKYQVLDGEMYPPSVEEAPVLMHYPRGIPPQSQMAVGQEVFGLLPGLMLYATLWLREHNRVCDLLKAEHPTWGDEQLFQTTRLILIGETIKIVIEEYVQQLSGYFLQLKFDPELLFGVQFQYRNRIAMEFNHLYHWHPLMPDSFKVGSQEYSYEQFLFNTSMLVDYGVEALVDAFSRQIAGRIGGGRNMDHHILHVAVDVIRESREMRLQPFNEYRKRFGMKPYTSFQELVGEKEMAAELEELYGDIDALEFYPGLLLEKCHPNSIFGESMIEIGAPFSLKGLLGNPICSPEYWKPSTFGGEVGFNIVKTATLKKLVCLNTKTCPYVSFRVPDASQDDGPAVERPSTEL

With `Cc1ccc(-c2ncc(Cl)cc2-c2ccc(S(C)(=O)=O)cc2)cn1`, the pKi was under 5.00.

By pKi is commonly meant the Ki on a negative log10 scale, so that one unit is a factor of ten.
